# According to patent US7820667B2, “Methods of treating hypertension” (Daiichi Sankyo Company, Limited, priority 2005, dated 2010):
# Tests used:
# [1] = Body weight of DOCA-salt hypertension rats; format: in vivo, Sprague-Dawley rats; settings: for Body weight: DOCA-salt hypertension rats, BH4 10 mg/kg b.w./day orally
# Text: (§1) One kidney was removed from each of 8-week-old Sprague-Dawley rats (supplied from Charles River) except for a control group.
# [2] = tested on: brain NOS (b-NOS); assay: Immunostaining of renal tissue NOS (anti-b-NOS antibody); format: in vivo, Sprague-Dawley rats; settings: renal tissues, DOCA-salt hypertension rats, BH4 10 mg/kg b.w./day orally, end of observation (5 weeks)
# Text: as §1
# (§2) The expression of endothelial NOS (e-NOS) and brain NOS (b-NOS) in renal tissues was examined in the sections of the isolated frozen renal tissues by immunostaining with anti-e-NOS and anti-b-NOS antibodies (Affinity Bioreagents), respectively.
# [3] = tested on: endothelial NOS (e-NOS); assay: Immunostaining of renal tissue NOS (anti-e-NOS antibody); format: in vivo, Sprague-Dawley rats; settings: renal tissues, DOCA-salt hypertension rats, BH4 10 mg/kg b.w./day orally, end of observation (5 weeks)
# Text: as §1, §2
# [4] = tested on: DOCA-salt SHRs; assay: Blood pressure by tail-cuff method in DOCA-salt SHR; format: in vivo; settings: BH4 10 mg/kg b.w./day orally
# Experimental: Blood pressure was measured by the tail-cuff method at the start of experiments and after 2, 3, 4, 5 and 6 weeks.
# [5] = tested on: DOCA-salt hypertension rats; assay: Biopterin (BP) in urine by HPLC in DOCA-salt hypertension rats; format: in vivo, Sprague-Dawley rats; settings: BH4 10 mg/kg b.w./day orally
# Text: as §1
# [6] = tested on: DOCA-salt SHRs; assay: Histopathological findings in renal tissues of DOCA-salt SHR; format: in vivo
# Text: After collecting urine and measuring blood pressure at 6 weeks, the animals was incised under anesthesia, exsanguinated from abdominal aorta and perfused with physiological saline via this site. The isolated kidney was fixed in a 10% formaldehyde solution, embedded in paraffin, then sliced to 4 μm in thickness by a microtome. Samples were stained with hematoxylin/eosin (HE) and periodic acid-Shiff. The incidences of histopathological findings on necrotizing glomerulitis and necrotizing arteriolitis were compared among the groups.
# [7] = tested on: DOCA-salt hypertension rats; assay: Blood pressure by tail-cuff method in DOCA-salt hypertension rats; format: in vivo, Sprague-Dawley rats; settings: BH4 10 mg/kg b.w./day orally
# Experimental: One kidney was removed from each of 8-week-old Sprague-Dawley rats (supplied from Charles River) except for a control group. […] Blood pressure was measured by the tail-cuff method at the start of experiment and 2, 4 and 5 weeks.
# [8] = tested on: e-NOS mRNA; assay: Measurement of NOS mRNA expression in renal tissues (RT-PCR, Southern hybridization); format: in vivo, Sprague-Dawley rats; settings: renal cortex, DOCA+BH4 group as compared with DOCA group, normalized against MDH, FIG. 4
# Experimental: as §1
# Extraction of RNA from renal tissues was performed by the guanidium/cesium chloride extraction method.
# Namely, a small amount of tissues collected from renal cortex of the isolated kidney was added immediately to a lysis solution 4M guanidinium thiocyanate and homogenized by a glass/Teflon homogenizer. This lysate was overlaid on 5.7M cesium chloride and centrifuged at 80,000 rpm for 2 hours, then the precipitate was dissolved in 0.1% diethyl pyrocarbonate (DEP) solution. This solution was precipitated with 2.5M ammonium acetate and ethanol at −20° C. for one hour and centrifuged at 10,000 rpm at 4° C. for 20 minutes to give a precipitate. […]
# Specifically, the RT reaction solution was added to a mixture of 5′- and 3′-primers for each of e-NOS to be detected and for malate dehyadrogenase (MDH) used as an internal standard, PCR buffer, 2.5 mM dNTP mixed solution and Taq DNA polymerase. […]
# PCR products were electrophoresed on 5% polyacrylamide gel and NOS mRNA expression was measured by Southern hybridization.
# Specifically, the PCR reaction solution was electrophoresed on 5% polyacrylamide and then, the gel was transferred to membrane filters. […] Then, autoradiography was run at −70° C. for several hours and the exposed autoradiograms were analyzed by a densitometer. […]
# [9] = tested on: DOCA-salt hypertension rats; assay: NO2/NO3 in urine (Griess method) in DOCA-salt hypertension rats; format: in vivo, Sprague-Dawley rats; settings: BH4 10 mg/kg b.w./day orally
# Experimental: One kidney was removed from each of 8-week-old Sprague-Dawley rats (supplied from Charles River) except for a control group. […] The measurement was carried out using Nitrate-Nitrite assay kit, (kit No. 780001, Cyman Chemical Company) according to the Griess method. The values of NO2/NO3 in urine means the activity of NOS, namely, higher the value, higher the activity.
# [10] = tested on: DOCA-salt SHRs; settings: in vivo, po, 10 mg/kg/day
# Experimental: One kidney was removed from 8-week old SHRs (supplied from Charles River) except for a control group. Then, the animals were divided into the following three experimental groups. • 1) A group given drinking water only (control group); sample size n=8; • 2) A group of DOCA-salt SHRs prepared by giving 30 mg/kg b.w. of deoxycorticosterone acetate (DOCA) subcutaneously once a week and 1% saline as drinking water from one week after nephrectomy (DOCA group); n 4; • 3) A group of DOCA-salt SHRs administered BH4 (10 mg/kg b.w./day) orally (DOCA+BH4 group); n=6.
# Urine was collected for 24 hours using a metabolic cage at the start of experiment and after 2, 3, 4, 5 and 6 (at the termination of the observation period) weeks. At the termination of the observation period, blood sample was collected from abdominal aorta under anesthesia with Phenobarbital.
# Biopterin (BP), a metabolite of BH4, was measured by a HPLC according to the procedure of Fukushima and Nixon. The effects of BH4 administration are evaluated on the basis of change of BP level in urine.
# The measured values were expressed as means±standard error and evaluated statistically using two-way ANOVA test. In the following analyses, the significant level sets p<0.05.
# [11] = tested on: rats; assay: Acute toxicity to rats; format: in vivo
# [12] = as reported in Japanese Patent Public Disclosure No. 25323/84; cited from earlier work
# [13] = until termination of observation period
# [14] = BH4 10 mg/kg b.w./day orally, kidney at 6 weeks
smiles,measurement,setting,value
"CC(O)C(O)C1CNc2nc(N)[nH]c(=O)c2N1 [BH4, (6R)-L-erythro-5,6,7,8-tetrahydrobiopterin]",Body weight,[1]; Start,383.40 g
same,Body weight,[1]; Week 2,386.40 ± 12.84 g
same,Body weight,[1]; Week 4,431.20 ± 13.31 g
same,Body weight,[1]; Week 5,446.80 ± 15.81 g
same,Body weight (in words),"[1]; control, DOCA and DOCA+BH4 groups compared",no significant difference
same,expression of b-NOS in macula densa (immunostaining),[2],comparable to the control group or slightly enhanced
same,expression of e-NOS in small vessels (immunostaining),[3],comparable to the control group or slightly enhanced
same,Blood pressure,[4]; Start,130.22 mmHg
same,Blood pressure,[4]; Week 2,133.60 mmHg
same,Blood pressure,[4]; Week 3,143.63 mmHg
same,Blood pressure,[4]; Week 4,150.90 mmHg
same,Blood pressure,[4]; Week 5,159.30 mmHg
same,Blood pressure,[4]; Week 6,162.95 mmHg
same,Change of blood pressure (in words),[4]; [13],showed the same blood pressures level as that of the control group
same,Change of BP in urine (in words),[5],showed an increase in the value of BP with time
same,Percentage (%) of incidences of histopathological findings in renal tissues: Necrotizing angiitis,[6]; [14],3.34 ± 0.94%
same,Percentage (%) of incidences of histopathological findings in renal tissues: Necrotizing glomerulitis,[6]; [14],2.47 ± 1.07%
same,Histopathological findings (in words),[6]; oral administration of BH4,remarkably improved histopathological findings
same,Blood pressure,[7]; Start,105.72 mmHg
same,Blood pressure,[7]; Week 2,120.54 mmHg
same,Blood pressure,[7]; Week 4,111.91 mmHg
same,Blood pressure,[7]; Week 5,107.78 mmHg
same,Change of blood pressure (in words),[7]; [13],stayed at normal blood pressures
same,expression of e-NOS mRNA,[8],significantly enhanced
same,Change of NO2/NO3 in urine (in words),[9],showed an increase in the value
same,NO2/NO3 in urine,[9]; Start,2.22 ± 0.7 µmol/day
same,NO2/NO3 in urine,[9]; Week 4,2 ± 0.55 µmol/day
same,NO2/NO3 in urine,[9]; Week 5,5.95 ± 1.9 µmol/day
same,Change of BP in urine (in words),[10],showed an increase in the value of BP with time
C[C@H](O)[C@H](O)[C@H]1CNc2[nH]c(N)nc(=O)c2N1.Cl.Cl [BH4 dihydrochloride],acute toxicity,[11],more than 2 g/kg (b.w.)
"C[C@H](O)[C@H](O)C1CNc2nc(N)[nH]c(=O)c2N1 (stereo partly drawn) [(6R,S)-5,6,7,8-tetrahydrobiopterin]",toxicity,[12],only slightly toxic
